Assay results reported in patent EP2348131A1, “Low levels of cytidine deaminase as a marker for genetic predisposition to develop cancer” (Institut Curie, priority 2010, dated 2011).

Key:
[1] = system: BLM-complemented BS cells; assay: Sister chromatid exchange assay in BLM-complemented BS cells; assay type: cell-based, human; conditions: BLM-complemented BS cells (BS-GFP-BLM), 25 mM dU or T in culture medium, 2 x 48 h
Protocol: HeLa cells were used, as previously described (Dutertre S et al., Oncogene 19, 2731-8, 2000). HEK293 cells were cultured as HeLa cells. HeLaV cells and HeLashBLM cells, HEK293V and HEK293shBLM were obtained by transfecting HeLa and HEK cells with an empty pSM2 vector or a pSM2 vector encoding a short hairpin RNA sequence directed against BLM (Open Biosystems, clone V2HS-89234), respectively, using JetPEI reagent (Ozyme) according to the manufacturer's instructions. After 48 hours, selection with 1 to 5 µg/ ml puromycin (Invivogen) was applied for HeLa cells and with 7 to12 µg/ml puromycin for HEK cells. Individual colonies were isolated and maintained in growth medium containing 0.5 µg/ ml puromycin for Hela cells or 10µg/ml puromycin for HEK cells. For siRNAs transient transfection assays, 3-4 x 10^5 cells were seeded in 3 ml of medium in each well of a six-well plate. […]
(§1) After treatment, cells were transferred to slides and cultured in the presence of 10 µM 5-bromodeoxyuridine (Sigma) at 37°C, under an atmosphere containing 5% CO2. […] Metaphases were captured with a SONY DXC 930 P camera and SCEs or chromosomal aberrations were analyzed.

BS cells = assay: Sister chromatid exchange assay in BS cells cultured with deoxynucleosides; assay type: cell-based, human; conditions: BS cells (BS-GFP), 25 µM dU or T in culture medium, 2 x 48 h
Protocol: The BS SV40-transformed fibroblast cell line GM08505B was cultured as previously described (Dutertre S et al., Oncogene 19, 2731-8, 2000). BS-GFP-BLM cells were obtained by transfecting BS GM08505B cells with an empty EGFP-C1 vector (Clontech, Mountain View, CA), or a EGFP-C1 vector containing the full length BLM cDNA (Eladad et al., Hum Mol Genet 14, 1351-65, 2005), respectively, using JetPEI reagent (Ozyme). After 48 hr, selection with 800 to 1600 µg/ml of G418 (Invitrogen) was applied. Individual colonies were isolated and maintained in DMEM supplemented with 800 µg/ml G418.
All cell lines were cultured in DMEM with 10% fetal calf serum (PAN laboratories) either not dialyzed (Lot P282710) or dialyzed (Lot P5940309) for nucleoside complementation experiments and dNTP assays. […]
as §1, with “CO2. After 40 hours, Colchicine (Sigma) was added to a final concentration of 0.1 µg/ ml for 1 hour. Cells were incubated in hypotonic solution (1:6 (vol/vol) FCS-distilled water) and fixed with 3:1 (vol/vol) methanol-acetic acid.” for “CO2.”

## Cc1cn([C@H]2C[C@H](O)[C@@H](CO)O2)c(=O)[nH]c1=O [T, thymidine]
[1]
  SCEs frequency: did not affect
BS cells
  SCEs frequency: significant decrease

## O=c1ccn([C@H]2C[C@H](O)[C@@H](CO)O2)c(=O)[nH]1 [dU, deoxyuridine]
[1]
  SCEs frequency: did not affect
BS cells
  SCEs frequency: significant decrease
